target: T1, human PAD4 (Homo sapiens, UniProt Q9UM07); test: In vitro PAD4 BAEE biochemical assay; conditions: BAEE substrate 3 mM, 5 nM PAD4, 2 mM calcium chloride; geometric mean of multiple experiments
T1 construct: human PAD4 (NM_012387), A2-P663, was PCR amplified; His-SUMO (N, cleaved yes); made in house; host or cells: E. coli BL21(DE3)
Method in brief: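 Assay was run at 25 °C using 3 mM BAEE and 5 nM human PAD4 after a 30 min compound preincubation; ammonia produced over 2 h was quantified by OPA-derived fluorescence. Full inhibition was defined by 50 µM BB-Cl-Amidine, and IC50 came from variable-slope nonlinear regression.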

T1 sequence (Q9UM07 2-663): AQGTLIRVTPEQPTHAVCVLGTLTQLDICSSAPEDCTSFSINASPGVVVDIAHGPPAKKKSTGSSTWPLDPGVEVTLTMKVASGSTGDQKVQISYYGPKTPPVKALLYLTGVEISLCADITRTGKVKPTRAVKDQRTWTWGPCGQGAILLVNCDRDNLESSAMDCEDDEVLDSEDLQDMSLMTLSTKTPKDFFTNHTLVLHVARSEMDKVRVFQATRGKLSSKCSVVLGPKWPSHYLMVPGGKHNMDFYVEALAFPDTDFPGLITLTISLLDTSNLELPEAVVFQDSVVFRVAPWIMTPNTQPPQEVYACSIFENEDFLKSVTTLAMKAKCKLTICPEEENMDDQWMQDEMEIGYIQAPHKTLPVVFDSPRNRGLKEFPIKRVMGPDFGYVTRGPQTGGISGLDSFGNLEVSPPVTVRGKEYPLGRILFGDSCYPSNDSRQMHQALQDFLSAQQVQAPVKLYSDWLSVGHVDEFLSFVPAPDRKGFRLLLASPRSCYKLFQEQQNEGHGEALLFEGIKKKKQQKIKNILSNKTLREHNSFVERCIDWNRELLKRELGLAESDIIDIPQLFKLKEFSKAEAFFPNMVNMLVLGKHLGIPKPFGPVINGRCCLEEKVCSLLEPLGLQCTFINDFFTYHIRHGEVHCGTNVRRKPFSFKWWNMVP

IC50 [nM] | Compound
37 | COc1cc(C(=O)N[C@H]2CNCC[C@@H]2F)cc2nc(-c3cc4ccc5nc4n3CCCCC[C@@H]3[C@@H](C(=O)N[C@@H]5C)C3(F)F)n(C)c12 [Example 369, 2-[(2~{R},5~{S},7~{R})-6,6-difluoro-2-methyl-4-oxo-3,13,19-triazatetracyclo[11.5.2.0^{5,7}.0^{16,20}]icosa-1(19),14,16(20),17-tetraen-14-yl]- ~{N}-[(3~{S},4~{S})-4-fluoro-3-piperidyl]-7-methoxy-1-methyl-benzimidazole-5-carboxamide]
40 | C[C@H]1NC(=O)[C@@H]2C[C@@H]2CCCCCn2c(-c3nc4cc(C(=O)N[C@H]5CNCC[C@@H]5F)c(F)cc4n3C)cc3ccc1nc32 [Example 522, 6-fluoro-~{N}-[(3~ {S},4~{S})-4-fluoro-3-piperidyl]-1-methyl-2-[(2~{R},5~{R},7~{S})-2-methyl-4-oxo-3,13,19-triazatetracyclo[11.5.2.0^ {5,7).0^{16,20}]icosa-1(19),14,16(20), 17-tetraen-14-yl] benzimidazole-5-carboxamide]
69 | COc1cc(C(=O)N2CC[C@@H](OC)[C@@H](N)C2)cc2nc(-c3cc4ccc5nc4n3CCCCC[C@@H]3C[C@@]3(C)C(=O)N[C@@H]5C)n(C)c12 [Example 583, (2~{R},5~{R},7~{R})-14-[5-[(3~{S),4~{R})-3-amino-4-methoxy-piperidine-1-carbonyl]-7-methoxy-1-methyl-benzimidazol-2-yl]-2,5-dimethyl-3,13,19-triazatetracyclo[11.5.2.0^ {5,7}.0^{16,20}]icosa-1(19), 14,16(20),17-tetraen-4-one]
40 | COc1cc(C(=O)N2C[C@H](N)[C@@H]3CC[C@H]2C3)cc2nc(-c3cc4ccc5nc4n3CCCCCc3ccc(F)c(F)c3C(=O)N[C@@H]5C)n(C)c12 [Example 897, (2~{R})-17-[5-[(1~{S),4~{R}, 5~{R})-4-amino-2-azabicyclo [3.2.1]octane-2-carbonyl]-7-methoxy-1-methyl-benzimidazol-2-yl]-6,7-difluoro-2-methyl-3,16,22-triazatetracyclo [14.5.2.0^{5,10}.0^{19,23}] tricosa-1(22),5(10),6,8,17, 19(23),20-heptaen-4-one]
36 | COc1cc(C(=O)N2CCC[C@@H](N)C2)cc2nc(-c3cc4ccc5nc4n3C[C@@H]3C[C@H]3CCCCC(=O)N[C@@H]5C)n(C)c12 [Example 269, (3~{R},5~{R},12~{R})-18-[5-[(3~{R})-3-aminopiperidine-1-carbonyl]-7-methoxy-1-methyl-benzimidazol-2-yl]-12-methyl-1,11,20-triazatetracyclo[11.5.2.0^{3,5}.0^{16,19}] icosa-13(20),14,16(19),17-tetraen-10-one]
9 | COc1cc(C(=O)N2[C@H]3CC[C@@H]2[C@H](N)C3)cc2nc(-c3cc4ccc5nc4n3CCCCCCCCC(=O)N[C@@H]5C)n(C)c12 [Example 286, (12~{R})-18-[5-[(1~{R},2~{R},4~{S})-2-amino-7-azabicyclo[2.2.1]heptane-7-carbonyl]-7-methoxy-1-methyl-benzimidazol-2-yl]-12-methyl-1,11,20-triazatricyclo[11.5.2.0^{16,19}]icosa-13(20),14,16(19),17-tetraen-10-one]
63 | C[C@H]1NC(=O)[C@@H]2[C@@H](CCCCCn3c(-c4nc5cc(C(=O)N[C@H]6CNCC[C@@H]6F)c(F)cc5n4C4CC4)cc4ccc1nc43)C2(F)F [Example 393, 1-cyclopropyl-2-[(2~{R},5~{S},7~{R})-6,6-difluoro-2-methyl-4-oxo-3,13,19-triazatetracyclo[11.5.2.0^{5,7}.0^{16,20}]icosa-1(19),14,16(20),17-tetraen-14-yl]-6-fluoro-~{N}-[(3~{S},4~{S})-4-fluoro-3-piperidyl]benzimidazole-5-carboxamide]
175 | C[C@H]1NC(=O)[C@H]2C[C@@H]2CCCCCn2c(-c3nc4cc(C(=O)N[C@H]5CNCC[C@@H]5F)c(F)cc4n3C3CC3)cc3ccc1nc32 [Example 539, 1-cyclopropyl-6-fluoro-~{N}-[(3~{S},4~{S})-4-fluoro-3-piperidyl]-2-[(2~{R},5~{S},7~ {S})-2-methyl-4-oxo-3,13,19-triazatetracyclo [11.5.2.0^{5,7}.0^{16,20}]icosa-1(19),14,16 (20),17-tetraen-14-yl]benzimidazole-5-carboxamide]

More lines, now with the values behind:

Compound | IC50 [nM]
COc1cc(C(=O)N2C[C@H](N)[C@@H]3CC[C@H]2C3)cc2nc(-c3cc4ccc5nc4n3CCCCCC[C@@](F)(c3cccc(Cl)n3)C(=O)N[C@@H]5C)n(C)c12 [Example 887, (8~{R},11~{R})-17-[5-[(1~{S),4~{R},5~{R})-4-amino-2-azabicyclo[3.2.1]octane-2-carbonyl]-7-methoxy-1-methyl-benzimidazol-2-yl]-8-(6-chloro-2-pyridyl)-8-fluoro-11-methyl-1,10,19-triazatricyclo[10.5.2.0^ {15,18}]nonadeca-12(19),13,15(18), 16-tetraen-9-one] | 52
COc1cc(C(=O)N2CCC[C@@H](N)C2)cc2nc(-c3cc4ccc5nc4n3C[C@@H]3C[C@H]3CO[C@@H](C)CC(=O)N[C@@H]5C)n(C)c12 [Example 267, (5~{R},8~{S},12~{R})-18-[5-[(3~{R})-3-aminopiperidine-1-carbonyl]-7-methoxy-1-methyl-benzimidazol-2-yl]-8,12-dimethyl-7-oxa-1,11,20-triazatetracyclo[11.5.2.0^{3,5}.0^{16,19}] icosa-13(20),14,16(19),17-tetraen-10-one] | 88
COc1cc(C(=O)N2[C@H]3CC[C@@H]2[C@H](N)C3)cc2nc(-c3cc4ccc5nc4n3CCCCC[C@@H](OC)CC(=O)N[C@@H]5C)c(C)n12 [Example 333, (7~{R},11~{R})-17-[7-[(1~{R},2~{R},4~{S})-2-amino-7-azabicyclo[2.2.1]heptane-7-carbonyl)-5-methoxy-3-methyl-imidazo[1,2-a]pyridin-2-yl]-7-methoxy-11-methyl-1,10,19-triazatricyclo[10.5.2.0^{15,18}]nonadeca-12(19),13,15(18),16-tetraen-9-one] | 33
COc1cc(C(=O)N2C[C@H](N)[C@@H]3CC[C@H]2C3)cc2nc(-c3cc4ccc5nc4n3CCCCCc3ccc(Cl)nc3C(=O)N[C@@H]5C)n(C)c12 [Example 954, (2~{R})-17-[5-[(1~{S},4~{R}, 5~{R})-4-amino-2-azabicyclo [3.2.1]octane-2-carbonyl]-7-methoxy-1-methyl-benzimidazol-2-yl]-7-chloro-2-methyl-3,6,16,22-tetrazatetracyclo[14.5.2.0^ {5,10}.0^{19,23}]tricosa-1(21),5(10),6,8,17,19,22-heptaen-4-one] | 32
CO[C@@H]1CCN(C(=O)c2cc(F)c3c(c2)nc(-c2cc4ccc5nc4n2CCCCCc2nccnc2C(=O)N[C@@H]5C)n3C2CC2)C[C@@H]1N [Example 578, (2~{R})-17-[5-[(3~{S},4~ {R})-3-amino-4-methoxy-piperidine-1-carbonyl]-1-cyclopropyl-7-fluoro-benzimidazol-2-yl]-2-methyl-3,6,9,16,22-pentazatetracyclo[14.5.2.0^ {5,10}.0^{19,23}] tricosa-1(22),5(10),6,8,17, 19(23),20-heptaen-4-one] | 78
COc1cc(C(=O)N2[C@H]3CC[C@@H]2[C@H](N)C3)cc2nc(-c3cc4ccc5nc4n3CCCCCCCN(C)C(=O)N[C@@H]5C)c(C)n12 [Example 211, (12~{R})-18-[7-[(1~{R},2~{R},4~{S})-2-amino-7-azabicyclo[2.2.1]heptane-7-carbonyl]-5-methoxy-3-methyl-imidazo[1,2-a]pyridin-2-yl]-9,12-dimethyl-1,9,11,20-tetrazatricyclo[11.5.2.0^{16,19}]icosa-13(20),14,16(19),17-tetraen-10-one] | 34
CO[C@@H]1CCN(C(=O)c2cc(F)c3c(c2)nc(-c2cc4ccc5nc4n2CCCCCc2cncc(F)c2C(=O)N[C@@H]5C)n3C2CC2)C[C@@H]1N [Example 662, (2~{R})-17-[5-[(3~{S},4~ {R})-3-amino-4-methoxy-piperidine-1-carbonyl]-1-cyclopropyl-7-fluoro-benzimidazol-2-yl]-6-fluoro-2-methyl-3,8,16,22-tetrazatetracyclo[14.5.2.0^ {5,10}.0^{19,23}] tricosa-1(22),5,7,9,17,19(23), 20-heptaen-4-one] | 32
COc1cc(C(=O)N2C[C@H](N)C[C@@H](F)C2)cc2nc(-c3cc4ccc5nc4n3CC(F)(F)CCCC[C@@](C)(C(F)(F)F)C(=O)N[C@@H]5C)n(C)c12 [Example 728, (8~{R},11~{R})-17-[5-[(3~ {R},5~{R})-3-amino-5-fluoro-piperidine-1-carbonyl]-7-methoxy-1-methyl-benzimidazol-2-yl]-3,3-difluoro-8,11-dimethyl-8-(trifluoromethyl)-1,10,19-triazatricyclo[10.5.2.0^ {15,18}]nonadeca-12(19),13,15(18),16-tetraen-9-one] | 75
COc1cc(C(=O)N2[C@H]3CC[C@@H]2[C@H](N)C3)cc2nc(-c3cc4ccc5nc4n3CCCCCOCC(C)(C)C(=O)N[C@@H]5C)n(C)c12 [Example 22, (12~{R})-18-[5-[(1~{R},2~{R},4~{S})-2-amino-7-azabicyclo[2.2.1]heptane-7-carbonyl]-7-methoxy-1-methyl-benzimidazol-2-yl]-9,9,12-trimethyl-7-oxa-1,11,20-triazatricyclo[11.5.2.0^{16,19}]icosa-13(20),14,16(19),17-tetraen-10-one] | 62
CO[C@@H]1CCN(C(=O)c2cc(F)c3c(c2)nc(-c2cc4ccc5nc4n2CCCCCC[C@H](c2cccc(Cl)n2)C(=O)N[C@@H]5C)n3C2CC2)C[C@@H]1N [Example 872, (8~{R},11~{R})-17-[5-[(3~ {S},4~{R})-3-amino-4-methoxy-piperidine-1-carbonyl]-1-cyclopropyl-7-fluoro-benzimidazol-2-yl]-8-(6-chloro-2-pyridyl)-11-methyl-1,10,19-triazatricyclo[10.5.2.0^ {15,18}]nonadeca-12(19), 13,15(18),16-tetraen-9-one] | 90
